Reference: paper PMC9490236, “Accurate de novo design of membrane-traversing macrocycles” (Cell, 2022)
Several values for one entry are separate records, joined by “and”; a condition that tells them apart may be missing. Equal values may be shown once. Read-outs that look alike come from different tables or passages of the source.

Assay: Pharmacokinetics and oral bioavailability of D8.3.p1 and D10.1 in Balb/C female mice (PO, SQ, IV)
Type: in vivo
Protocol: In vivo bioavailability assays were conducted in mice and rats. D8.3.p1 and D10.1 were studied in female Balb/C mice by van Voorhis group at University of Washington. D11.2 was evaluated in Sprague Dawley (SD) rats by Robert Griffin’s group at Takeda Pharmaceuticals. D11.3 was studied in the male swiss albino mice by the contract research organization, GVK Biosciences Pvt. Ltd., Hyderabad, India. All animals used in these studies were handled in strict accordance with practices made to minimize suffering. All animal experiments conducted at the University of Washington, USA, and Takeda Pharmaceuticals, USA were approved by the Institutional Animal Care and Use Committee. Animal studies at GVK Biosciences were reviewed and approved by the Institutional Animal Ethics Committee of GVK Biosciences. We selected four designed macrocycles with diverse structures and in vitro rates of permeability for in vivo oral bioavailability studies in the rodent models. Due to the intensive resource requirements for such studies, these studies were conducted by three different research groups. D8.3.p1 and D10.1 were studied in female Balb/C mice by van Voorhis group at University of Washington. D11.2 was evaluated in Sprague Dawley (SD) rats by Robert Griffin’s group at Takeda Pharmaceuticals. D11.3 was studied in the male swiss albino mice by the contract research organization, GVK Biosciences Pvt. Ltd., Hyderabad, India. […] Blood samples were collected at multiple time points and plasma was separated from whole blood using centrifugation and stored at -80°C. […] Samples were mixed, centrifuged, and supernatant harvested for LC-MS analysis. For RP-HPLC analysis, peptides were evaluated using Agilent ZORBAX Eclipse Plus C18 1.8 μm, 2.1 mm x 50 mm and Waters Xevo TQ-S micro Triple Quadrupole/ACQUITY UPLC H-Class. […] Pharmacokinetic parameters were modeled using the Phoenix WinNonlin software package. […]

[1] = D10.1 PO 12.2 mg/kg, individual mice M1, M2, M3, 12.2 mg/kg
[2] = D10.1 PO 12.2 mg/kg, mean n=3, 12.2 mg/kg
[3] = D10.1 SQ 12.2 mg/kg, individual mice M1, M2, M3
[4] = D10.1 SQ 12.2 mg/kg, individual mice M2, M3 (M1 NA)

CC[C@H](C)[C@@H]1NC(=O)[C@@H](CC(C)C)NC(=O)[C@H](CC(C)C)N(C)C(=O)[C@H](Cc2ccccc2)NC(=O)CN(C)C(=O)[C@@H]2CCCN2C(=O)[C@H](C(C)C)NC(=O)[C@H](Cc2ccccc2)N(C)C(=O)[C@H]2CCCN2C(=O)[C@H](CC(C)C)NC1=O [Design D10.1, DLEU ILE LEU DPRO *PHE VAL PRO *GLY PHE *LEU]
Plasma level (D10.1 PO 12.2 mg/kg, 15 min, individual mice M1, M2, M3, 12.2 mg/kg): 2260 nM | Plasma level (D10.1 PO 12.2 mg/kg, 15 min, mean n=3, 12.2 mg/kg): 2580 nM | Plasma level (D10.1 PO 12.2 mg/kg, 30 min, individual mice M1, M2, M3, 12.2 mg/kg): 2490 nM and 3640 nM and 2640 nM | Plasma level (D10.1 PO 12.2 mg/kg, 30 min, mean n=3, 12.2 mg/kg): 2920 nM | Plasma level (D10.1 PO 12.2 mg/kg, 60 min, individual mice M1, M2, M3, 12.2 mg/kg): 2140 nM and 1640 nM and 1570 nM | Plasma level (D10.1 PO 12.2 mg/kg, 60 min, mean n=3, 12.2 mg/kg): 1780 nM | Plasma level (D10.1 PO 12.2 mg/kg, 120 min, mean n=3, 12.2 mg/kg): 720 nM | Plasma level (D10.1 PO 12.2 mg/kg, 240 min, mean n=3, 12.2 mg/kg): 160 nM | Plasma level (D10.1 PO 12.2 mg/kg, 360 min, individual mice M1, M2, M3, 12.2 mg/kg): 0 nM and 100 nM | Plasma level (D10.1 PO 12.2 mg/kg, 360 min, mean n=3, 12.2 mg/kg): 70 nM | Plasma level (D10.1 PO 12.2 mg/kg, 1440 min, individual mice M1, M2, M3): 0 nM | Plasma level (D10.1 PO 12.2 mg/kg, 1440 min, mean n=3): 0 nM | Tmax (D10.1 PO 12.2 mg/kg, individual mice M1, M2, M3): 0.5 h | AUC0-∞ [1]: 226.62 µmol·min/L and 337.03 µmol·min/L and 276.18 µmol·min/L | AUC(0-t) [1]: 216.96 µmol·min/L and 327.78 µmol·min/L and 266.45 µmol·min/L | Cl/F [1]: 0.000944 L/min and 0.000635 L/min and 0.000775 L/min | T1/2 [1]: 1.051 h and 1.132 h | Cmax (D10.1 PO 12.2 mg/kg, individual mice M1, M2, M3, 12.2 mg/kg, read-out: Cmax): 3640 nM and 2640 nM | AUC0-∞ [2]: 279.94 µmol·min/L | AUC(0-t) [2]: 270.4 µmol·min/L | Plasma level (D10.1 SQ 12.2 mg/kg, 15 min, mean n=3): 2530 nM | Plasma level (D10.1 SQ 12.2 mg/kg, 30 min, individual mice M1, M2, M3): 1810 nM and 3690 nM and 5150 nM | Plasma level (D10.1 SQ 12.2 mg/kg, 30 min, mean n=3): 3550 nM | Plasma level (D10.1 SQ 12.2 mg/kg, 60 min, individual mice M1, M2, M3): 1870 nM and 4880 nM and 5030 nM | Plasma level (D10.1 SQ 12.2 mg/kg, 60 min, mean n=3): 3930 nM | Plasma level (D10.1 SQ 12.2 mg/kg, 360 min, mean): 2290 nM | Plasma level (D10.1 SQ 12.2 mg/kg, 1440 min, individual mice M1, M2, M3): 0 nM | Plasma level (D10.1 SQ 12.2 mg/kg, 1440 min, mean n=3): 10 nM | AUC(0-t) [3]: 730.93 µmol·min/L and 3578.6 µmol·min/L and 1329.09 µmol·min/L | Tmax [3]: 6 h and 1 h | Cmax (D10.1 SQ 12.2 mg/kg, individual mice M1, M2, M3, read-out: Cmax): 2400 nM and 4880 nM and 5150 nM | AUC0-∞ [4]: 3585.94 µmol·min/L and 2148.41 µmol·min/L | Cl/F [4]: 5.97e-05 L/min and 9.96e-05 L/min | T1/2 [4]: 4.3302 h | AUC0-∞ (D10.1 SQ 12.2 mg/kg, mean): 2867.17 µmol·min/L | Half-life T1/2 (D10.1 SQ 12.2 mg/kg, mean): 3.7563 ± 0.8117 h | AUC(0-t) (D10.1 SQ 12.2 mg/kg, mean n=3): 1879.54 µmol·min/L | clearance (female, Balb/C, mouse, plasma, iv, […], D10.1 IV […], individual mice M1, M2, M3, read-out: CLP): 3.46 mL/min/kg | half-life (female, Balb/C, mouse, plasma, iv, […], D10.1 IV […], individual mice M1, M2, M3, read-out: T1/2): 1.21 h | Vd (female, Balb/C, mouse, plasma, iv, […], D10.1 IV […], individual mice M1, M2, M3, read-out: VSS): 0.32 L/kg | Vd (female, Balb/C, mouse, plasma, iv, […], D10.1 IV […], individual mice M1, M2, M3, read-out: VZ): 0.36 L/kg | half-life (female, Balb/C, mouse, plasma, iv, […], D10.1 IV […], mean n=3, read-out: Half-life T1/2): 1.12 ± 0.113 h | clearance (female, Balb/C, mouse, plasma, iv, […], D10.1 IV […], mean n=3, read-out: Plasma clearance CLP): 3.26 ± 0.37 mL/min/kg | Vd (female, Balb/C, mouse, plasma, iv, […], D10.1 IV […], mean n=3, read-out: Volume of distribution @ steady state VSS): 0.25 ± 0.08 L/kg | Vd (female, Balb/C, mouse, plasma, iv, […], D10.1 IV […], mean n=3, read-out: Volume of distribution during elimination phase VZ): 0.32 ± 0.07 L/kg | level at time molar at 0.25 h (female, Balb/C, mouse, plasma, po, 12.2 mg/kg, D10.1 PO 12.2 mg/kg, 15 min, individual mice M1, M2, M3, read-out: Plasma level): 2220 nM | level at time molar at 2 h (female, Balb/C, mouse, plasma, po, 12.2 mg/kg, D10.1 PO 12.2 mg/kg, 120 min, individual mice M1, M2, M3, read-out: Plasma level): 540 nM | level at time molar at 4 h (female, Balb/C, mouse, plasma, po, 12.2 mg/kg, D10.1 PO 12.2 mg/kg, 240 min, individual mice M1, M2, M3): 130 nM | level at time molar at 6 h (female, Balb/C, mouse, plasma, po, 12.2 mg/kg, D10.1 PO 12.2 mg/kg, 360 min, individual mice M1, M2, M3, read-out: Plasma level): 100 nM | Cmax (female, Balb/C, mouse, plasma, po, 12.2 mg/kg, D10.1 PO 12.2 mg/kg, individual mice M1, M2, M3, read-out: Cmax): 2490 nM | half-life (female, Balb/C, mouse, plasma, po, 12.2 mg/kg, D10.1 PO 12.2 mg/kg, individual mice M1, M2, M3, read-out: T1/2): 0.831 h | Tmax (female, Balb/C, mouse, plasma, po, 12.2 mg/kg, D10.1 PO 12.2 mg/kg, individual mice M1, M2, M3, read-out: Tmax (converted)): 0.5 h | half-life (female, Balb/C, mouse, plasma, po, 12.2 mg/kg, D10.1 PO 12.2 mg/kg, mean n=3, read-out: Half-life T1/2): 1 ± 0.156 h | Cmax (female, Balb/C, mouse, plasma, po, 12.2 mg/kg, D10.1 PO 12.2 mg/kg, mean n=3, read-out: Max concentration Cmax): 2920 ± 630 nM | Tmax (female, Balb/C, mouse, plasma, po, 12.2 mg/kg, D10.1 PO 12.2 mg/kg, mean n=3, read-out: Time of max concentration Tmax (converted)): 0.5 h | bioavailability (female, Balb/C, mouse, plasma, po, 12.2 mg/kg, read-out: Oral bioavailability F): 7.48 ± 1.79% | level at time molar at 6 h (female, Balb/C, mouse, plasma, sc, 12.2 mg/kg, D10.1 SQ 12.2 mg/kg, 360 min, individual mice M1, M3 (M2 ND), read-out: Plasma level): 2400 nM | level at time molar at 24 h (female, Balb/C, mouse, plasma, sc, 12.2 mg/kg, D10.1 SQ 12.2 mg/kg, 1440 min, individual mice M1, M2, M3, read-out: Plasma level): 30 nM | AUC(0-inf) (female, Balb/C, mouse, plasma, sc, D10.1 SQ 12.2 mg/kg, mean): 47.8 µM·h | AUC(0-t) (female, Balb/C, mouse, plasma, sc, D10.1 SQ 12.2 mg/kg, mean n=3, read-out: AUC0-t (converted)): 1880 µmol·min/L | half-life (female, Balb/C, mouse, plasma, subcutaneous, 12.2 mg/kg, D10.1 SQ 12.2 mg/kg, individual mice M2, M3 (M1 NA), read-out: T1/2): 3.18 h | AUC(0-inf) (female, Balb/C, mouse, plasma, D10.1 PO 12.2 mg/kg, mean n=3): 4.67 µM·h | AUC(0-t) (female, Balb/C, mouse, plasma, D10.1 PO 12.2 mg/kg, mean n=3, read-out: AUC0-t (converted)): 270 µmol·min/L | CL/F (female, Balb/C, mouse, plasma, D10.1 PO 12.2 mg/kg, mean n=3, read-out: Apparent clearance Cl/F): 0.785 mL/min | half-life (mouse, in vivo, sc, 12.2 mg/kg, D10.1 after SQ administration, read-out: plasma half-life T1/2 (converted)): 3.75 h
